Among the data in patent US20200187502A1, “MICROBIOCIDAL OXADIAZOLE DERIVATIVES” (SYNGENTA PARTICIPATIONS AG, priority 2017, published 2020) are pest or weed control and inhibition of growth values, retold here.

Assay [1] concerns Puccinia recondita f. Sp. Tritici. The experiment in a line: Fungicidal activity, wheat leaf disc preventative (brown rust). It is filed as in vivo. As to conditions: foliar, 200 ppm in the applied formulation, wheat leaf segments cv. Kanzler, compared to untreated control, 7 to 9 days after application, read-out: disease control. In outline: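 Wheat cv. Kanzler leaf segments on agar were sprayed with formulated compound in water, then inoculated with spores 1 day later. Incubated at 19° C, 75% rh, 12 h light/12 h dark; percent disease control versus untreated scored 7 to 9 days after application.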

In a further assay the test system is Phakopsora pachyrhizi. Briefly: Fungicidal activity, soybean leaf disc preventative (Asian soybean rust). The format is in vivo. The settings on record: foliar, 200 ppm in the applied formulation, soybean leaf disks, compared to untreated control, 12 to 14 days after application, read-out: disease control. The protocol: Leaf disks or leaf segments of various plant species are cut from plants grown in a greenhouse. The cut leaf disks or segments are placed in multiwell plates (24-well format) onto water agar. The leaf disks are sprayed with a test solution before (preventative) or after (curative) inoculation. Compounds to be tested are prepared as DMSO solutions (max. 10 mg/ml) which are diluted to the appropriate concentration with 0.025% Tween20 just before spraying. The inoculated leaf disks or segments are incubated under defined conditions (temperature, relative humidity, light, etc.) according to the respective test system. A single evaluation of disease level is carried out 3 to 14 days after inoculation, depending on the pathosystem. Percent disease control relative to the untreated check leaf disks or segments is then calculated.
Soybean leaf disks are placed on water agar in multiwell plates (24-well format) and sprayed with the formulated test compound diluted in water. One day after application leaf discs are inoculated by spraying a spore suspension on the lower leaf surface. After an incubation period in a climate cabinet of 24-36 hours in darkness at 20° C. and 75% rh leaf disc are kept at 20° C. with 12 h light/day and 75% rh. The activity of a compound is assessed as percent disease control compared to untreated when an appropriate level of disease damage appears in untreated check leaf disks (12 to 14 days after application).
The following compounds at 200 ppm in the applied formulation give at least 80% disease control in this test when compared to untreated control leaf disks under the same conditions, which show extensive disease development.

Assay [2] has as its system Glomerella lacenarium (Colletotrichum lacenarium). The experiment in a line: Fungicidal activity, liquid culture, cucumber preventative (anthracnose). The format is cell-based. The settings on record: 20 ppm in the applied formulation, liquid culture in PDB, inhibition of growth measured photometrically 3 to 4 days after application, compared to untreated control, read-out: disease control. Put shortly:
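In liquid culture, cryo-stored conidia in potato dextrose broth were exposed to compound delivered from DMSO solution. Growth inhibition was measured photometrically after 3 to 4 days at 24° C.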

In assay [3] the test system is Puccinia recondita f. Sp. Tritici. Briefly: Fungicidal activity, wheat leaf disc curative (brown rust). The format is in vivo. The settings on record: foliar, 200 ppm in the applied formulation, wheat leaf segments cv. Kanzler, curative (applied 1 day after inoculation), compared to untreated control, 6 to 8 days after application, read-out: disease control. Put shortly: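 Spray application came one day after spore inoculation of Kanzler wheat leaf segments kept on agar. Conditions: 19° C, 75% relative humidity, dark before treatment and 12 h light/12 h dark after. Efficacy = % disease control compared with untreated, 6–8 days post-application.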

Each structure is given as a SMILES string.

`CCN(Cc1ccc(-c2noc(C(F)(F)F)n2)s1)C(=O)COC` [Compound 4.22, N-ethyl-2-methoxy-N-[[5-[5-(trifluoromethyl)-1,2,4-oxadiazol-3-yl]-2-thienyl]methyl]acetamide]: the pest or weed control at 200 ppm (in assay [1]; with Phakopsora pachyrhizi) was ≥ 80% in each case. Besides, the inhibition of growth at 20 ppm in assay [2] was ≥ 80%.

Turning to `CCN(Cc1ccc(-c2noc(C(F)(F)F)n2)s1)C(C)=O` [Compound 4.31, N-ethyl-N-[[5-[5-(trifluoromethyl)-1,2,4-oxadiazol-3-yl]-2-thienyl]methyl]acetamide], the pest or weed control at 200 ppm (in assay [1]; with Phakopsora pachyrhizi) was ≥ 80% throughout. Besides, the inhibition of growth at 20 ppm in assay [2] was ≥ 80%.

As for `CCN(Cc1ccc(-c2noc(C(F)(F)F)n2)s1)S(=O)(=O)CCOC` [Compound 6.12, N-ethyl-2-methoxy-N-[[5-[5-(trifluoromethyl)-1,2,4-oxadiazol-3-yl]-2-thienyl]methyl]ethanesulfonamide], the pest or weed control at 200 ppm (in assay [1]; with Phakopsora pachyrhizi) was ≥ 80% in each case. For the same compound, in assay [2], the inhibition of growth at 20 ppm is ≥ 80%.

For `CN(Cc1ccc(-c2noc(C(F)(F)F)n2)s1)C(=O)N1CCCO1` [Compound 5.56, N-methyl-N-[[5-[5-(trifluoromethyl)-1,2,4-oxadiazol-3-yl]-2-thienyl]methyl]isoxazolidine-2-carboxamide], the pest or weed control at 200 ppm (in assay [1]; with Phakopsora pachyrhizi) was ≥ 80% each time. For the same compound, the inhibition of growth at 20 ppm in assay [2] was ≥ 80%.

`CCN(Cc1ccc(-c2noc(C(F)(F)F)n2)s1)S(=O)(=O)N(C)C` [Compound 6.18, N-(dimethylsulfamoyl)-N-[[5-[5-(trifiuoromethyl)-1,2,4-oxadiazol-3-yl]-2-thienyl]methyl]ethanamine]: the pest or weed control at 200 ppm (in assay [1]; in the assay on Phakopsora pachyrhizi) was ≥ 80% each time. Further, the inhibition of growth at 20 ppm in assay [2] is ≥ 80%.

Turning to `CCCS(=O)(=O)N(CC)Cc1ccc(-c2noc(C(F)(F)F)n2)s1` [Compound 6.20, N-ethyl-N-[[5-[5-(trifluoromethyl)-1,2,4-oxadiazol-3-yl]-2-thienyl]methyl]propane-1-sulfonamide], the pest or weed control at 200 ppm (in assay [1]; in the assay with Phakopsora pachyrhizi) was ≥ 80% in each case. In assay [2], the inhibition of growth at 20 ppm is ≥ 80%.

With `CCN(Cc1ccc(-c2noc(C(F)(F)F)n2)s1)S(=O)(=O)CC` [Compound 6.14, N-ethyl-N-[[5-[5-(trifluoromethyl)-1,2,4-oxadiazol-3-yl]-2-thienyl]methyl]ethanesulfonamide], the pest or weed control at 200 ppm in the assay on Phakopsora pachyrhizi was ≥ 80%. In addition, the inhibition of growth at 20 ppm in assay [2] was ≥ 80%.

For `COCCCC(=O)N(Cc1ccc(-c2noc(C(F)(F)F)n2)s1)C(C)C` [Compound 4.48, N-isopropyl-4-methoxy-N-[[5-[5-(trifluoromethyl)-1,2,4-oxadiazol-3-yl]-2-thienyl]methyl]butanamide], the pest or weed control at 200 ppm in assay [1] and in assay [3] was ≥ 80% in each case. Further, the inhibition of growth at 20 ppm in assay [2] was ≥ 80%.

Consider `CCC(=O)C(=O)N(Cc1ccc(-c2noc(C(F)(F)F)n2)s1)C1CC1` [Compound 6.56, N-cyclopropyl-2-oxo-N-[[5-[5-(trifluoromethyl)-1,2,4-oxadiazol-3-yl]-2-thienyl]methyl]butanamide], for which the pest or weed control at 200 ppm in assay [1] and in assay [3] was ≥ 80% each time. The inhibition of growth at 20 ppm in assay [2] was ≥ 80%.

On to `CCN(Cc1ccc(-c2noc(C(F)(F)F)n2)s1)C(=O)CC1CC1` [Compound 5.9, 2-cyclopropyl-N-ethyl-N-[[5-[5-(trifluoromethyl)-1,2,4-oxadiazol-3-yl]-2-thienyl]methyl]acetamide], for which the pest or weed control at 200 ppm in assay [1] and in assay [3] was ≥ 80% in each case. The inhibition of growth at 20 ppm in assay [2] was ≥ 80%.

Take `CN(CC#N)C(=O)N(Cc1ccc(-c2noc(C(F)(F)F)n2)s1)C1CC1` [Compound 4.86, 1-(cyanomethyl)-3-cyclopropyl-1-methyl-3-[[5-[5-(trifluoromethyl)-1,2,4-oxadiazol-3-yl]-2-thienyl]methyl]urea]: the pest or weed control at 200 ppm in assay [1] and in assay [3] was ≥ 80% throughout. For the same compound, in assay [2], the inhibition of growth at 20 ppm is ≥ 80%.

Consider `CC1(C(=O)N(Cc2ccc(-c3noc(C(F)(F)F)n3)s2)C2CC2)CC1` [Compound 5.39, N-cyclopropyl-1-methyl-N-[[5-[5-(trifluoromethyl)-1,2,4-oxadiazol-3-yl]-2-thienyl]methyl]cyclopropanecarboxamide], for which the pest or weed control at 200 ppm in assay [1] and in assay [3] was ≥ 80% each time. Also, the inhibition of growth at 20 ppm in assay [2] was ≥ 80%.

`CCCC(=O)N(Cc1ccc(-c2noc(C(F)(F)F)n2)s1)OCC(F)F` [Compound 4.63, N-(2,2-difluoroethoxy)-N-[[5-[5-(trifluoromethyl)-1,2,4-oxadiazol-3-yl]-2-thienyl]methyl]butanamide]: the pest or weed control at 200 ppm in assay [1] and in assay [3] was ≥ 80% throughout. The inhibition of growth at 20 ppm in assay [2] is ≥ 80%.

For `CCOC(=O)N(Cc1ccc(-c2noc(C(F)(F)F)n2)s1)C1CC1` [Compound 4.4, ethyl N-cyclopropyl-N-[[5-[5-(trifluoromethyl)-1,2,4-oxadiazol-3-yl]-2-thienyl]methyl]carbamate], the pest or weed control at 200 ppm in assay [1] and in assay [3] was ≥ 80% throughout. The inhibition of growth at 20 ppm in assay [2] is ≥ 80%.

With `COCCNC(=O)N(Cc1ccc(-c2noc(C(F)(F)F)n2)s1)C(C)C` [Compound 4.84, 1-isopropyl-3-(2-methoxyethyl)-1-[[5-[5-(trifluoromethyl)-1,2,4-oxadiazol-3-yl]-2-thienyl]methyl]urea], the pest or weed control at 200 ppm in assay [1] and in assay [3] was ≥ 80% in each case. In addition, the inhibition of growth at 20 ppm in assay [2] was ≥ 80%.

For the compound `CC(C)CC(=O)C(=O)N(C)Cc1ccc(-c2noc(C(F)(F)F)n2)s1` [Compound 6.51, N,4-dimethyl-2-oxo-N-[[5-[5-(trifluoromethyl)-1,2,4-oxadiazol-3-yl]-2-thienyl]methyl]pentanamide], the pest or weed control at 200 ppm in assay [1] and in assay [3] was ≥ 80% throughout. Further, the inhibition of growth at 20 ppm in assay [2] is ≥ 80%.

Consider `CC(=O)NCC(=O)NCc1ccc(-c2noc(C(F)(F)F)n2)s1` [Compound 2.2, 2-acetamido-N-[[5-[5-(trifluoromethyl)-1,2,4-oxadiazol-3-yl]-2-thienyl]methyl]acetamide], for which the pest or weed control at 200 ppm with Phakopsora pachyrhizi is ≥ 80%.

In the case of `CCN(CC)C(=O)N(Cc1ccc(-c2noc(C(F)(F)F)n2)s1)C1CC1` [Compound 4.90, 1-cyclopropyl-3,3-diethyl-1-[[5-[5-(trifluoromethyl)-1,2,4-oxadiazol-3-yl]-2-thienyl]methyl]urea], the pest or weed control at 200 ppm in assay [1] and in assay [3] was ≥ 80% in each case. Besides, in assay [2], the inhibition of growth at 20 ppm was ≥ 80%.

As for `CC(C)N(Cc1ccc(-c2noc(C(F)(F)F)n2)s1)C(=O)CC(F)(F)F` [Compound 4.50, 3,3,3-trifluoro-N-isopropyl-N-[[5-[5-(trifluoromethyl)-1,2,4-oxadiazol-3-yl]-2-thienyl]methyl]propanamide], the pest or weed control at 200 ppm in assay [1] and in assay [3] was ≥ 80% throughout. Moreover, the inhibition of growth at 20 ppm in assay [2] was ≥ 80%.

For the compound `CCN(CC)C(=O)N(CC)Cc1ccc(-c2noc(C(F)(F)F)n2)s1` [Compound 4.73, 1,1,3-triethyl-3-[[5-[5-(trifluoromethyl)-1,2,4-oxadiazol-3-yl]-2-thienyl]methyl]urea], the pest or weed control at 200 ppm in assay [1] and in assay [3] was ≥ 80% throughout. The inhibition of growth at 20 ppm in assay [2] was ≥ 80%.

Consider `CCCN(CC1CC1)C(=O)N(CC)Cc1ccc(-c2noc(C(F)(F)F)n2)s1` [Compound 5.53, 1-(cyclopropylmethyl)-3-ethyl-1-propyl-3-[[5-[5-(trifluoromethyl)-1,2,4-oxadiazol-3-yl]-2-thienyl]methyl]urea], for which the pest or weed control at 200 ppm in assay [1] and in assay [3] was ≥ 80% in each case. In addition, the inhibition of growth at 20 ppm in assay [2] was ≥ 80%.
